Test results as given in PMC6688628, “N-Substituted Pyrrole Derivative 12m Inhibits HIV-1 Entry by Targeting Gp41 of HIV-1 Envelope Glycoprotein” (Frontiers in Pharmacology, 2019).

Tests used:
[1] = system: T20-resistant HIV-1 strains; test: Anti-HIV-1 activity, panel of T20-resistant mutants; assay type: cell-based; settings: Human immunodeficiency virus 1; range over T20-resistant mutants; read-out: EC50 values against a series of T20-resistant mutants
Experimental: The HIV-1 replication-inhibiting activity of compounds was determined as previously described ([Li et al., 2013]). Briefly, 1 × 10^4 TZM-bl or MT-2 cells were infected with primary HIV-1 strains or T20-resistant HIV-1 strains (100 TCID50) in 200 µl of RPMI-1640 medium containing 10% FBS in the presence or absence of compounds at graded concentrations for 12 h. The culture medium was replaced with fresh medium without the compounds. After culture for an additional 48 h, supernatants or cells were collected from each well. For the primary HIV-1 strains, the cells were treated using a luciferase kit. Briefly, the cells were lysed with the lysis reagent and were transferred into a 96-well flat-bottom luminometer plate after three washes with phosphate-buffered saline (PBS) (Costar Corning Inc., Corning, NY), followed by addition of the luciferase substrate included in the luciferase kit (Promega Corp., Madison, WI). The luciferase activity was measured immediately by an Ultra 384 microplate reader (Tecan, Research Triangle Park, NC). T20 was used as a positive control. For the T20-resistant HIV-1 strains, 100 µl of culture supernatant was mixed with 100 µl of 5% Triton X-100. […] Absorbance at 450 nm was recorded in an ELISA reader (Ultra 384, Tecan). EC50 values were calculated using the computer program CalcuSyn ([Chou and Talalay, 1984]).

[2] = XTT assay, U87-CD4-CXCR4 cells; assay type: cell-based; settings: human
Experimental: The in vitro cell viability of NSPD-12m on HIV-1 target cells (U87-CD4-CXCR4, U87-CD4-CCR5, TZM-bl, and MT-2 cells) and HIV effector cells (CHO-WT cells) was analyzed by an XTT colorimetric assay. Briefly, 100 µl of 5 × 10^5/ml cells was mixed and incubated with 100 µl of NSPD-12m at graded concentrations at 37°C for 3 days. Then, 50 µl of XTT solution (1 mg/ml) containing 0.02 µM of phenazinemethosulphate (PMS) was added to each well, and the cells were incubated at 37°C for another 4 h. The absorbance at 450 nm was measured with an ELISA reader. The 50% cytotoxicity concentrations (CC50) were calculated using the CalcuSyn software ([Chou and Talalay, 1984]).

[3] = system: HIV-1JR-FL (R5 strain) Env pseudotyped virus; test: microbe, parasite or virus in culture; assay type: cell-based; settings: Human immunodeficiency virus 1, single-cycle infection, luciferase
VSV-G pseudotyped virus = assay type: cell-based, vesicular stomatitis virus
HIV-1 IIIB = test: Cell-cell HIV-1 IIIB transmission, MT-2 to CEMx174 5.25 M7 cells; assay type: cell-based; settings: Human immunodeficiency virus 1, IIIB; infected MT-2 to CEMx174 5.25 M7 cells; luciferase
Experimental: Inhibition of fusion between MT-2 cells infected by HIV-1 strains (X4 and R5 viruses) with CEMx174 5.25 M7 cells, which express CD4 and both coreceptors, CXCR4 and CCR5, was determined by a luciferase assay. Briefly, MT-2 cells were infected with the corresponding HIV-1 strains for 7 days. The infected MT-2 cells were washed three times and resuspended in culture medium to 2 × 10^5/ml. Then, 50 μl of a compound at graded concentrations in triplicate was incubated with equal volumes of HIV-1-infected MT-2 cells at 37°C for 30 min. Next, 100 μl of CEMx174 5.25 M7 cells (4 × 10^5/ml) was added, and the cells were incubated at 37°C for 3 days. The cells were collected, washed, and lysed with the lysing reagent included in the luciferase kit (Promega, Corp., Madison, Wis). Aliquots of cell lysates were transferred to 96-well flat-bottom luminometer plates (Costar), followed by the addition of luciferase substrate (Promega). Luciferase activity was measured using an Ultra 384 luminometer. ADS-J1 was used as a positive control for all cell–cell fusion assays.

gp41 6-HB (N36/C34) = target: T1, gp41 6-HB (N36/C34) (Human immunodeficiency virus type 1 group M subtype B, UniProt P04578); test: CD spectroscopy of N36/C34 alpha-helical conformation; assay type: biochemical, HIV-1; settings: 20-µM compound preincubated with N36 before the addition of C34
T1 construct: purchased GL Biochem of China; host or cells: chemical solid-phase Fmoc synthesis
T1 sequence (P04578 546-581): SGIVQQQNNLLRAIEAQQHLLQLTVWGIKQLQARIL
Experimental: The effects of NSPD-12m on the formation of the secondary α-helix structures of the peptides N36 and C34 were detected by CD spectroscopy as described previously ([Liu et al., 2005]; [Zhang et al., 2018]). Briefly, the peptide N36 (10 µM in PBS) was incubated with NSPD-12m (20 µM in PBS) or PBS at 37°C for 30 min, followed by incubation with the peptide C34 (10 µM in PBS) at 37°C for another 30 min. To further confirm that NSPD-12m inhibited the formation of secondary α-helix structures, the peptide N36 was incubated with the peptide C34 at 37°C for 30 min before the addition of the compound. ADS-J1 (40 µM in PBS) was used as a positive control. The reported CD spectra of the peptides N36 and C34 and the mixture of N36, C34, and the compounds described previously were obtained at 25°C using a Jasco 715 spectropolarimeter (Jasco Inc., Japan) with a 5.0-nm bandwidth, 0.1-nm resolution, 0.1-cm path length, 4.0-s response time, and 50-nm/min scanning speed. The spectra were corrected by the subtraction of a blank corresponding to the solvent. The quantities of compounds with α-helix structures were estimated from the molar ellipticity at 222 nm using Jasco software utilities.

[4] = system: HIV-1JR-FL Env mutant K574A pseudovirus; assay type: cell-based; settings: compared with wild-type HIV-1JR-FL pseudovirus
[5] = system: HIV-1 NL4-3(36G)V38A,N42D; settings: T20-resistant NL4-3(36G)V38A,N42D; p24 ELISA; mean ± SD
[6] = system: HIV-1 NL4-3(36G)V38A,N42T; settings: T20-resistant NL4-3(36G)V38A,N42T; p24 ELISA; mean ± SD

`Cc1cc(/C=C2\SC(=S)N(Cc3ccccc3C(F)(F)F)C2=O)c(C)n1-c1ccc(O)c(C(=O)O)c1` [NSPD-12m] gave an EC50 [1] of 15.7 to 24.7 µM, a CC50 at 3 days [2] of 101.4 ± 0.48 µM and a CC90 at 3 days [2] of 122.5 ± 0.59 µM. For the same compound, the EC50 [3] was about 14 µM, the “inhibition of VSV-G pseudovirus infection” value (VSV-G pseudotyped virus) was “could not be strongly inhibited” and the EC50 (HIV-1 IIIB) was 1.99 ± 0.08 µM. For the same compound, the “α-helical content of the 6-HB (CD, 222 nm)” value (gp41 6-HB (N36/C34)) was “clearly reduced”, the “inhibitory activity against K574A mutant pseudovirus” value [4] was “significant loss” and the IC50 [5] was 22.4 ± 2.84 µM. It also gave an IC90 [5] of 32.5 ± 4.95 µM, an IC50 [6] of 16.3 ± 3.03 µM and an IC90 [6] of 33.9 ± 6.14 µM.
